Results published in US20250332300A1 (priority 2024, published 2025).
Positions of bridges follow the written chain, without caps; N, C: chain ends. Non-standard residues stand in square brackets, D forms with d. Residues, ends and D or L forms follow the SMILES beside them. Trp(5-OH) = N[C@@H](Cc1c[nH]c2ccc(O)cc12)C(=O)O; NMePhe(4-F) = CN[C@@H](Cc1ccc(F)cc1)C(=O)O; NMehPhe = CN[C@@H](CCc1ccccc1)C(=O)O; NMeAhp(2) = CCCCC[C@H](NC)C(=O)O; Aad = N[C@@H](CCCC(=O)O)C(=O)O; Gly(cPr) = N[C@H](C(=O)O)C1CC1; NMeK = CN[C@@H](CCCCN)C(=O)O; NMeDap = CN[C@@H](CN)C(=O)O; NMeS = CN[C@@H](CO)C(=O)O

Tests used:
Type in all cases: binding
[1] = biological target: T1, mouse HER2 (23-653) (Mus musculus, UniProt P70424); experiment: TR-FRET competition assay for peptide potency, mouse HER2; set-up: mouse HER2 (23-653) using a Cy5 labeled peptide as a probe; made in house; host or cells: mammalian cells; conditions: TR-FRET competition with Cy5 labeled peptide probe, 0.1 nM mouse HER2, 24 h incubation; read-out: moHER2 TR-FRET IC50
[2] = biological target: T1, mouse HER2 (23-653); experiment: Surface plasmon resonance (SPR) for assessment of peptide affinity, mouse HER2; set-up: mouse HER2 (23-653) using a Cy5 labeled peptide as a probe; made in house; conditions: SPR, mouse HER2 extracellular domain, 25° C., 1:1 binding model; read-out: moHER2-SPR-ONC KD
From the text: Each protein was immobilized either onto a SA sensorchip (Cytiva, BR-1005-31) or CM5 sensorchip (Cytiva, BR-1005-30) to a density of 800-2000 RU.

[3] = biological target: human HER2 (23-652) (Homo sapiens, UniProt P04626); experiment: Surface plasmon resonance (SPR) for assessment of peptide affinity, human HER2; set-up: towards human HER2 (23-652) and mouse HER2 (23-653); made in house; conditions: SPR, human HER2 extracellular domain, 25° C., 1:1 binding model; read-out: huHER2-SPR-ONC KD
Procedure, shortened: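 Binding kinetics fitted from sensorgrams with 280 s peptide association then 3000 s dissociation (30 uL/min), using HER2 (23-652) either directly immobilized (SA/CM5) or anti-Fc-captured; 3 M magnesium chloride used for regeneration.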

IC50 [1] [nM] | Kd [2] [nM] | Kd [3] [nM] | Structure (SMILES)
3.7 | 1.2 | 1.3 | CCCCC[C@H]1C(=O)N(C)[C@@H](CCCCNC(C)=O)C(=O)N[C@@H](Cc2c[nH]c3ccc(O)cc23)C(=O)N[C@@H](Cc2c[nH]c3ccccc23)C(=O)N[C@@H](C2CC2)C(=O)N(C)[C@H](C(=O)N(C)[C@@H](Cc2ccc(F)cc2)C(N)=O)CNC(=O)CCC[C@H](NC(C)=O)C(=O)N[C@@H](Cc2ccc(O)cc2)C(=O)N[C@@H](CO)C(=O)N1C [Example A14, (3S,6S,9S,12S,15S,18S,21S,24S,27S)-9-((1H-indol-3-yl)methyl)-27-acetamido-15-(4-acetamidobutyl)-N-((S)-1-amino-3-(4-fluorophenyl)-1-oxopropan-2-yl)-6-cyclopropyl-12-((5-hydroxy-1H-indol-3-yl)methyl)-24-(4-hydroxybenzyl)-21-(hydroxymethyl)-N,4,16,19-tetramethyl-5,8,11,14,17,20,23,26,31-nonaoxo-18-pentyl-1,4,7,10,13,16,19,22,25-nonaazacyclohentriacontane-3-carboxamide] (Ac-[Aad]YS[NMeAhp(2)][NMeK](Ac)[Trp(5-OH)]W[Gly(cPr)][NMeDap][NMePhe(4-F)]-NH2; lactam 1-9)
13 | 8.4 | 11 | CC(=O)N[C@H]1CCCC(=O)NC[C@@H](C(=O)N(C)[C@@H](Cc2ccc(F)cc2)C(=O)N2CCC[C@H]2C(N)=O)N(C)C(=O)[C@H](C2CC2)NC(=O)[C@H](Cc2c[nH]c3ccccc23)NC(=O)[C@H](Cc2c[nH]c3ccc(O)cc23)NC(=O)[C@H](CO)N(C)C(=O)[C@H](CCc2ccccc2)N(C)C(=O)[C@H](CO)NC(=O)[C@H](Cc2ccc(O)cc2)NC1=O [Example A26, (3S,6S,9S,12S,15S,18S,21S,24S,27S)-9-((1H-indol-3-yl)methyl)-27-acetamido-N-((S)-1-((S)-2-carbamoylpyrrolidin-1-yl)-3-(4-fluorophenyl)-1-oxopropan-2-yl)-6-cyclopropyl-12-((5-hydroxy-1H-indol-3-yl)methyl)-24-(4-hydroxybenzyl)-15,21-bis(hydroxymethyl)-N,4,16,19-tetramethyl-5,8,11,14,17,20,23,26,31-nonaoxo-18-phenethyl-1,4,7,10,13,16,19,22,25-nonaazacyclohentriacontane-3-carboxamide]
53 | 27 | 30 | CC(=O)N[C@H]1CCCC(=O)NC[C@@H](C(=O)N(C)[C@@H](Cc2ccc(F)cc2)C(N)=O)N(C)C(=O)[C@H](C2CC2)NC(=O)[C@H](Cc2c[nH]c3ccccc23)NC(=O)[C@H](Cc2c[nH]c3ccc(O)cc23)NC(=O)[C@H](CO)N(C)C(=O)[C@H](CCc2ccccc2)N(C)C(=O)[C@H](CO)NC(=O)[C@H](Cc2ccc(O)cc2)NC1=O [Example A29, (3S,6S,9S,12S,15S,18S,21S,24S,27S)-9-((1H-indol-3-yl)methyl)-27-acetamido-N-((S)-1-amino-3-(4-fluorophenyl)-1-oxopropan-2-yl)-6-cyclopropyl-12-((5-hydroxy-1H-indol-3-yl)methyl)-24-(4-hydroxybenzyl)-15,21-bis(hydroxymethyl)-N,4,16,19-tetramethyl-5,8,11,14,17,20,23,26,31-nonaoxo-18-phenethyl-1,4,7,10,13,16,19,22,25-nonaazacyclohentriacontane-3-carboxamide] (Ac-[Aad]YS[NMehPhe][NMeS][Trp(5-OH)]W[Gly(cPr)][NMeDap][NMePhe(4-F)]-NH2; lactam 1-9)

Structure (SMILES) | IC50 [1] [nM] | Kd [2] [nM] | Kd [3] [nM]
CC(=O)N[C@H]1CCCC(=O)NC[C@@H](C(=O)N(C)[C@@H](Cc2ccc(F)cc2)C(=O)N[C@@H](CCCCNC(=O)CN2CCN(CC(=O)O)CCN(CC(=O)O)CCN(CC(=O)O)CC2)C(N)=O)N(C)C(=O)[C@H]([C@H](C)O)NC(=O)[C@H](Cc2c[nH]c3ccccc23)NC(=O)[C@H](Cc2c[nH]c3ccc(O)cc23)NC(=O)[C@H](CCCCNC(=O)CO)N(C)C(=O)[C@H](CCc2ccccc2)N(C)C(=O)[C@H](CO)NC(=O)[C@H](Cc2ccc(O)cc2)NC1=O [Example C21] |  | 0.7 | 0.3
